Source: ChEMBL document CHEMBL5108044, “Discovery of a Novel Potent STAT3 Inhibitor HP590 with Dual p-Tyr705/Ser727 Inhibitory Activity for Gastric Cancer Treatment” (J Med Chem, 2022)

Key:
[1] = molecular target: Signal transducer and activator of transcription 3 (Homo sapiens, UniProt P40763); assay: Inhibition of human recombinant STAT3 (127 to 722 residues) transcriptional activity expressed in HEK293T cells in presence of IL-6 by Dual-luciferase reporter gene assay; assay type: cell-based
[2] = Inhibition of ATP production in human MKN-45 cells incubated for 20 to 24 hrs by ATP assay kit method; assay type: functional, cell-based
MKN-45 = assay: Antiproliferative activity against human MKN-45 cells assessed as reduction in cell viability incubated for 72 hrs by MTS assay; assay type: functional, cell-based; details: MKN-45, 72 h
AGS = assay: Antiproliferative activity against human AGS cells assessed as reduction in cell viability incubated for 72 hrs by MTS assay; assay type: functional, cell-based
MGC-803 = assay: Antiproliferative activity against human MGC-803 cells assessed as reduction in cell viability incubated for 72 hrs by MTS assay; assay type: functional, cell-based; details: MGC-803, 72 h

Signal transducer and activator of transcription 3, sequence (P40763 whole entry, the tested form may be a part): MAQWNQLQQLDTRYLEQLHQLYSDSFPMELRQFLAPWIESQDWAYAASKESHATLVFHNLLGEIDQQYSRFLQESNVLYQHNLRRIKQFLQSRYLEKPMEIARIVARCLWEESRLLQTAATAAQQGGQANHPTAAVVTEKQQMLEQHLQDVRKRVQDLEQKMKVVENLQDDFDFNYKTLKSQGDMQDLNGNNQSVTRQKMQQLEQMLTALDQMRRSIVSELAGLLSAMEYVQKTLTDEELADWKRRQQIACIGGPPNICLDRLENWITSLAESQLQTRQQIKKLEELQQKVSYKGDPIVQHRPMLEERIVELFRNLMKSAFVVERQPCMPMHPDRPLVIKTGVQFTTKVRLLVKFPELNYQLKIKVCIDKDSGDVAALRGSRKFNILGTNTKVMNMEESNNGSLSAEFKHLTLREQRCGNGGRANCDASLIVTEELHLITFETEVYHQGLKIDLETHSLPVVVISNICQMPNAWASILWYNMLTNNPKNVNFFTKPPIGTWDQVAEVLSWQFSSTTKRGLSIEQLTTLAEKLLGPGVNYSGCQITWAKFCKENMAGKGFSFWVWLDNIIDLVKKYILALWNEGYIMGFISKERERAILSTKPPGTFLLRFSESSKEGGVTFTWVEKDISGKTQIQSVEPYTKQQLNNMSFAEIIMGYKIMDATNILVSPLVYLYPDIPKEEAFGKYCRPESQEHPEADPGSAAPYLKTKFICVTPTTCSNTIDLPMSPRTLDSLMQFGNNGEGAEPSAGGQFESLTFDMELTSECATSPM

Structure (SMILES) | IC50 [1] | IC50 [2] | IC50 (MKN-45) | IC50 (AGS) | IC50 (MGC-803)
O=C(c1ccc(OC(F)(F)F)cc1)N1CCN(C(=O)c2ccc(-c3nc(-c4ccc(C(F)(F)F)cc4)no3)nc2)CC1 | > 1000 nM |  |  |  | 
O=C(c1ccc(-c2nc(-c3ccc(F)cc3)no2)nc1)N1CCN(Cc2ccc(OCC(F)(F)F)cc2)CC1 | 123 nM |  |  |  | 
O=C(c1ccc(-c2nc(-c3ccc(C(F)(F)F)cc3)no2)s1)N1CCN(Cc2ccc(OCC(F)(F)F)cc2)CC1 | 167 nM |  |  |  | 
O=C(c1ccc(-c2nc(-c3ccc(C(F)(F)F)cc3)co2)nc1)N1CCN(Cc2ccc(OCC(F)(F)F)cc2)CC1 | 94.1 nM |  |  |  | 
O=C(c1ccc(-c2nc(-c3ccc(C(F)(F)F)cc3)no2)nc1)N1CCN(Cc2ccc(NCC(F)(F)F)cc2)CC1 | > 1000 nM |  |  |  | 
Cc1ccc(-c2noc(-c3ccc(C(=O)N4CCN(Cc5ccc(OCC(F)(F)F)cc5)CC4)cn3)n2)cc1 | 258 nM |  |  |  | 
CCCN1CCN(C(=O)c2ccc(-c3nc(-c4ccc(C(F)(F)F)cc4)no3)nc2)CC1 | 533 nM |  |  |  | 
COc1ccc(CN2CCN(C(=O)c3ccc(-c4nc(-c5ccc(C(F)(F)F)cc5)no4)nc3)CC2)cc1 | 147 nM |  |  |  | 
CS(=O)(=O)c1ccc(CN2CCN(C(=O)c3ccc(-c4nc(-c5ccc(C(F)(F)F)cc5)no4)nc3)CC2)cc1 | 273 nM |  |  |  | 
O=C(c1ncc(-c2nc(-c3ccc(C(F)(F)F)cc3)no2)s1)N1CCN(Cc2ccc(OCC(F)(F)F)cc2)CC1 | > 1000 nM |  |  |  | 
CN1CCN(C(=O)c2ccc(-c3nc(-c4ccc(C(F)(F)F)cc4)no3)nc2)CC1 | 2790 nM |  |  |  | 
O=C(c1ccc(-c2nc(-c3ccc(OC(F)(F)F)cc3)no2)nc1)N1CCN(Cc2ccc(OCC(F)(F)F)cc2)CC1 | 60.2 nM | 93.2 nM | 36.4 nM | 23.5 nM | 23.3 nM
O=C(c1ccc(-c2nc(-c3ccc(C(F)(F)F)cc3)no2)nc1)N1CCN(Cc2ccc(Br)cc2)CC1 | 40.2 nM | 520 nM | 108 nM | 77.8 nM | 67.6 nM
CC(C)(C)c1ccc(-c2noc(-c3ccc(C(=O)N4CCN(Cc5ccc(OCC(F)(F)F)cc5)CC4)cn3)n2)cc1 | > 1000 nM |  |  |  | 
O=C(c1ccc(-c2nc(-c3ccc(C(F)(F)F)cc3)no2)cn1)N1CCN(Cc2ccc(OCC(F)(F)F)cc2)CC1 | 75.9 nM | 97.8 nM | 24.6 nM | 22.8 nM | 15.3 nM
O=C(c1ccc(-c2nc(-c3cccc(F)c3)no2)nc1)N1CCN(Cc2ccc(OCC(F)(F)F)cc2)CC1 | 177 nM |  |  |  | 
O=C(c1ccc(-c2nc(-c3ccc(C(F)(F)F)cc3)no2)nc1)N1CCN(Cc2ccccc2OCC(F)(F)F)CC1 | > 1000 nM |  |  |  | 
Cc1ccc(CN2CCN(C(=O)c3ccc(-c4nc(-c5ccc(C(F)(F)F)cc5)no4)nc3)CC2)cc1 | 182 nM |  |  |  | 
O=C(c1cnc(-c2noc(-c3ccc(C(F)(F)F)cc3)n2)cn1)N1CCN(Cc2ccc(OCC(F)(F)F)cc2)CC1 | 58 nM | 242 nM | 49.5 nM | 27.2 nM | 32.4 nM
CCN1CCN(C(=O)c2ccc(-c3nc(-c4ccc(C(F)(F)F)cc4)no3)nc2)CC1 | > 1000 nM |  |  |  | 
O=C(c1ccc(-c2nc(-c3ccc(Br)cc3)no2)nc1)N1CCN(Cc2ccc(OCC(F)(F)F)cc2)CC1 | 93.2 nM |  |  |  | 
O=C(c1ccc(-c2nc(-c3ccc(C(F)(F)F)cc3)no2)nc1)N1CCN(Cc2ccc(OC(F)(F)F)cc2)CC1 | 63.6 nM | 598 nM | 16.4 nM | 59.8 nM | 12.7 nM
O=C(c1ccc(-c2nc(-c3ccc(Cl)cc3)no2)nc1)N1CCN(Cc2ccc(OCC(F)(F)F)cc2)CC1 | 271 nM |  |  |  | 
O=C(c1ccc(-c2nc(-c3ccccc3)no2)nc1)N1CCN(Cc2ccc(OCC(F)(F)F)cc2)CC1 | > 1000 nM |  |  |  | 
O=C(c1ncccc1-c1nc(-c2ccc(C(F)(F)F)cc2)no1)N1CCN(Cc2ccc(OCC(F)(F)F)cc2)CC1 | > 1000 nM |  |  |  | 
CC(C)(C)c1ccc(CN2CCN(C(=O)c3ccc(-c4nc(-c5ccc(C(F)(F)F)cc5)no4)nc3)CC2)cc1 | 88.1 nM | 200 nM | 54.5 nM | 67.6 nM | 31.8 nM
O=C(Cc1ccc(OC(F)(F)F)cc1)N1CCN(C(=O)c2ccc(-c3nc(-c4ccc(C(F)(F)F)cc4)no3)nc2)CC1 | 359 nM |  |  |  | 
O=C(c1ccc(-c2nc(-c3cccc(C(F)(F)F)c3)no2)nc1)N1CCN(Cc2ccc(OCC(F)(F)F)cc2)CC1 | 130 nM |  |  |  | 

Structure (SMILES) | IC50 [1] | IC50 [2] | IC50 (MKN-45) | IC50 (AGS) | IC50 (MGC-803)
O=C(c1ccc(-c2nc(-c3cccs3)no2)nc1)N1CCN(Cc2ccc(OCC(F)(F)F)cc2)CC1 | > 1000 nM |  |  |  | 
O=C(c1ccc(-c2nc(-c3ccc(C(F)(F)F)cc3)no2)nc1)N1CCN(Cc2c(F)cc(Br)cc2F)CC1 | > 1000 nM |  |  |  | 
O=C(c1ccc(-c2nc(-c3ccc(C(F)(F)F)cc3)no2)nc1)N1CCN(Cc2ccc(Cl)cc2)CC1 | 108 nM |  |  |  | 
O=C(c1ccc(-c2nc(-c3ncccn3)no2)nc1)N1CCN(Cc2ccc(OCC(F)(F)F)cc2)CC1 | > 1000 nM |  |  |  | 
O=C(c1ccc(-c2nc(-c3ccc(C(F)(F)F)cc3)no2)nc1)N1CCN(Cc2ccccc2OC(F)(F)F)CC1 | > 1000 nM |  |  |  | 
O=C(c1ccc(-c2nc(-c3ccccc3C(F)(F)F)no2)nc1)N1CCN(Cc2ccc(OCC(F)(F)F)cc2)CC1 | > 1000 nM |  |  |  | 
O=C(c1ccccc1-c1nc(-c2ccc(C(F)(F)F)cc2)no1)N1CCN(Cc2ccc(OCC(F)(F)F)cc2)CC1 | > 1000 nM |  |  |  | 
O=C(c1ccc(-c2nc(-c3ccc(C(F)(F)F)cc3)no2)nc1)N1CCN(Cc2cccc(OCC(F)(F)F)c2)CC1 | 803 nM |  |  |  | 
COc1ccc(-c2noc(-c3ccc(C(=O)N4CCN(Cc5ccc(OCC(F)(F)F)cc5)CC4)cn3)n2)cc1 | 113 nM |  |  |  | 
O=C(c1ccc(-c2nc(-c3ccc(C(F)(F)F)cc3)no2)nc1)N1CCN(Cc2ccc(Br)c(F)c2)CC1 | 296 nM |  |  |  | 
N#Cc1ccc(CN2CCN(C(=O)c3ccc(-c4nc(-c5ccc(C(F)(F)F)cc5)no4)nc3)CC2)cc1 | 477 nM |  |  |  | 
O=C(c1ccc(-c2nc(-c3ccc(C(F)(F)F)cc3C(F)(F)F)no2)nc1)N1CCN(Cc2ccc(OCC(F)(F)F)cc2)CC1 | > 1000 nM |  |  |  | 
O=C(c1ccc(-c2nc(-c3ccc(C(F)(F)F)cc3)no2)nc1)N1CCN(Cc2ccc(OCC(F)(F)F)cc2)CC1 | 37.4 nM | 72.5 nM | 18.4 nM | 8.4 nM | 11.5 nM
O=C(c1ccc(-c2nc(-c3ccc(C(F)(F)F)cc3)no2)nc1)N1CCN(Cc2ccc(Br)cc2F)CC1 | 564 nM |  |  |  | 
O=C(c1ccc(-c2nc(-c3ccccc3F)no2)nc1)N1CCN(Cc2ccc(OCC(F)(F)F)cc2)CC1 | > 1000 nM |  |  |  | 
O=C(c1ccc(-c2nc(-c3ccc(C(F)(F)F)cc3)cs2)nc1)N1CCN(Cc2ccc(OCC(F)(F)F)cc2)CC1 | 516 nM |  |  |  | 
O=C(c1ccc(-c2nc(-c3cncs3)no2)nc1)N1CCN(Cc2ccc(OCC(F)(F)F)cc2)CC1 | > 1000 nM |  |  |  | 
O=C(c1ccc(-c2nc(-c3ccc(C(F)(F)F)cc3)no2)nc1)N1CCN(Cc2ccc(F)cc2)CC1 | 304 nM |  |  |  | 
O=C(c1cc(-c2nc(-c3ccc(C(F)(F)F)cc3)no2)ccn1)N1CCN(Cc2ccc(OCC(F)(F)F)cc2)CC1 | 32.3 nM | 87.6 nM | 153 nM | 8.7 nM | 13.1 nM
O=C(c1ccc(-c2nc(-c3ccc(C(F)(F)F)c(F)c3)no2)nc1)N1CCN(Cc2ccc(OCC(F)(F)F)cc2)CC1 | 40.2 nM | 218 nM | 21.2 nM | 21.5 nM | 22.2 nM
O=C(c1ccc(-c2nc(-c3ccc(C(F)(F)F)cc3)no2)nc1)N1CCN(Cc2cccc(OC(F)(F)F)c2)CC1 | 325 nM |  |  |  | 
O=C(c1ccc(-c2cn(-c3ccc(C(F)(F)F)cc3)nn2)nc1)N1CCN(Cc2ccc(OCC(F)(F)F)cc2)CC1 | 113 nM |  |  |  | 
Nc1ccc(CN2CCN(C(=O)c3ccc(-c4nc(-c5ccc(C(F)(F)F)cc5)no4)nc3)CC2)cc1 | > 1000 nM |  |  |  | 
CC(=O)Oc1ccc(CN2CCN(C(=O)c3ccc(-c4nc(-c5ccc(C(F)(F)F)cc5)no4)nc3)CC2)cc1 | 306 nM |  |  |  | 
CC(=O)c1cc2c(o1)C(=O)c1ccccc1C2=O [NAPABUCASIN] |  |  | 3940 nM | 437 nM | 872 nM
O=C(c1cccc(-c2nc(-c3ccc(C(F)(F)F)cc3)no2)c1)N1CCN(Cc2ccc(OCC(F)(F)F)cc2)CC1 | 52.1 nM | 55.9 nM | 41.6 nM | 27.1 nM | 28.1 nM
O=C(/C=C/c1ccc(OC(F)(F)F)cc1)N1CCN(C(=O)c2ccc(-c3nc(-c4ccc(C(F)(F)F)cc4)no3)nc2)CC1 | 173 nM |  |  |  | 
